How the values were obtained:
Assay type in all cases: cell-based, Porcine
Settings in all cases: 1 μM, 5 μM or 20 μM, 24 hr at 37° C.
Bmal1 = Bmal1 immunofluorescence in iPEC-1 cells treated with ursolic acid
Experimental: (§1) iPEC-1 cells were grown as a monolayer in DMEM with 10% fetal bovine serum (FBS) and the necessary supplements at 37° C. in a humidified incubator with 5% CO2. iPEC1 cells were seeded on 35 mm dishes. Experiments were initiated 48 hr after plating. Cells were treated with saline or with ursolic acid at three separate dosages (1 μM; 5 μM; or 20 μM) in the medium for 24 hr at 37° C. The cells were then washed with ice-cold PBS and fixed with 4% paraformaldehyde for 10 min at room temperature followed by permeabilization with 0.3% Triton X-100 for 10 min. After being washed with PBS three times, cells were incubated for 1 hr in PBS containing 10% normal goat serum blocking solution. The cells were subjected to immunofluorescence staining with the target specific antibodies (SIRT1, CLOCK and Bmal1) overnight at 4° C. The cells were then washed with cold PBS three times for 3 min each, and incubated with Alexa-labeled secondary antibodies (Invitrogen) at room temperature for 1 h. The cells were examined by fluorescence microscopy (a Nikon TE2000-S microscope, Nikon, Tokyo, Japan).

CLOCK = CLOCK immunofluorescence in iPEC-1 cells treated with ursolic acid
Experimental: as §1

SIRT1 = SIRT1 immunofluorescence in iPEC-1 cells treated with ursolic acid
Experimental: as §1

SMILES: C[C@H]1[C@H](C)CC[C@]2(C(=O)O)CC[C@]3(C)C(=CC[C@@H]4[C@@]5(C)CC[C@H](O)C(C)(C)[C@@H]5CC[C@]43C)[C@H]12 [ursolic acid]
- intensity of immunofluorescence of Bmal1 compared with controls (Bmal1): significantly induced the intensity of immunofluorescence
- intensity of immunofluorescence of CLOCK compared with controls (CLOCK): significantly induced the intensity of immunofluorescence
- intensity of immunofluorescence of SIRT1 compared with controls (SIRT1): significantly induced the intensity of immunofluorescence

Reference: patent US10039798B2, “Extracts of rosemary or hemerocallis fulva and methods of using same to promote circadian rhythm” (IN Ingredients, Inc., priority 2013, dated 2018)
